In patent US12398154B2, “Azaquinazoline pan-KRas inhibitors” (Mirati Therapeutics, Inc., priority 2020, dated 2025):

Experiments:
pERK in HCT116 cells = test: Inhibition of KRas phosphorylation of ERK (Cisbio HTRF pERK assay); conditions: Homo sapiens, HCT-116, read-out: Inhibition (HTRF IC50) of KRas-mediated Phosphorylation of ERK, HCT116
KRas G12D = KRas G12D (Homo sapiens, UniProt P01116, G12D); test: biochemical;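 note: TR-FRET displacement binding assay on KRas, read after a one-hour incubation at room temperature, IC50 fitted from percent-of-control values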
Description: (§1) The ability of a compound to bind to KRas was measured using a TR-FRET displacement assay. […] After a 60-minute incubation at room temperature, the reaction was measured using a BMG LABTECH CLARIO star Plus via TR-FRET. […] The POC values were fit to a 4-parameter IC50 equation and the IC50 value reported.

KRas G12R = KRas G12R (Homo sapiens, UniProt P01116, G12R); test: biochemical;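 note: TR-FRET displacement assay of compound binding to KRas, read after one hour at room temperature, potency from a four-parameter fit of percent-of-control values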
Description: as §1

pERK in ASPC1 cells = test: Inhibition of KRas phosphorylation of ERK (Cisbio HTRF pERK assay); conditions: Homo sapiens, ASPC1, read-out: Inhibition (HTRF IC50) of KRas-mediated Phosphorylation of ERK, AsPC-1
KRas G12V = KRas G12V (Homo sapiens, UniProt P01116, G12V); test: biochemical;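 note: KRas binding measured by TR-FRET displacement at room temperature, IC50 fitted from percent of control values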
Description: as §1

pERK in MKN1 cells = test: Inhibition of KRas phosphorylation of ERK (Cisbio HTRF pERK assay); conditions: Homo sapiens, MKN-1, 3 h, read-out: Inhibition (HTRF IC50) of KRas-mediated Phosphorylation of ERK, MKN1
pERK in PSN1 cells = test: as above; conditions: Homo sapiens, PSN1, 3 h, read-out: Inhibition (HTRF IC50) of KRas-mediated Phosphorylation of ERK, PSN1
pERK in H727 cells = test: as above; conditions: Homo sapiens, NCI-H727, read-out: Inhibition (HTRF IC50) of KRas-mediated Phosphorylation of ERK, H727

Chain of KRas G12R (P01116 1-169 isoform P01116-2 G12R): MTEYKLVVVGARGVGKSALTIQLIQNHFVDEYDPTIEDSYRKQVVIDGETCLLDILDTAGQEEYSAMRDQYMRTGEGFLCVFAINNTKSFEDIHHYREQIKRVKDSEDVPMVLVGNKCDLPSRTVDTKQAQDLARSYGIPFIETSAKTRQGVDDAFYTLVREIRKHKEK
Chain of KRas G12V (P01116 1-169 isoform P01116-2 G12V): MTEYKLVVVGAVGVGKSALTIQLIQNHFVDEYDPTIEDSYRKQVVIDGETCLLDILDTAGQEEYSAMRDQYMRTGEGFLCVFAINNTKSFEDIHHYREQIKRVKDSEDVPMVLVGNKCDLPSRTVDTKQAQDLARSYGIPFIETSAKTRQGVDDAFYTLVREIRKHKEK
Chain of KRas G12D (P01116 1-169 isoform P01116-2 G12D): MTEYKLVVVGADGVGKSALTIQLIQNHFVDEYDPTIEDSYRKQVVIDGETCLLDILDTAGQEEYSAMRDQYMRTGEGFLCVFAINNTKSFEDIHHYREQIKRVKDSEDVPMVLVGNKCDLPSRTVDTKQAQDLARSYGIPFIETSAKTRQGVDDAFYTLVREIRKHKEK

Compound	IC50 (pERK in HCT116 cells)	IC50 (KRas G12D)	IC50 (KRas G12R)	IC50 (pERK in ASPC1 cells)	IC50 (KRas G12V)	IC50 (pERK in MKN1 cells)	IC50 (pERK in PSN1 cells)	IC50 (pERK in H727 cells)
CCc1c(F)ccc2cc(O)cc(-c3ncc4c(NCCN5CC(=O)NC5=O)nc(OC[C@@]56CCCN5C[C@H](F)C6)nc4c3F)c12 [Example 378, 1-(2-((7-(8-ethyl-7-fluoro-3-hydroxynaphthalen-1-yl)-8-fluoro-2-(((2R,7aS)-2-fluorohexahydro-1H-pyrrolizin-7a-yl)methoxy)pyrido[4,3-d]pyrimidin-4-yl)amino)ethyl)imidazolidine-2,4-dione]	≥ 10 µM	0.104 µM	0.025 µM	≥ 10 µM	0.014 µM			
CCc1c(F)ccc2cc(O)cc(-c3ncc4c(NCCC5CNC(=O)C5)nc(OC[C@@]56CCCN5C[C@H](F)C6)nc4c3F)c12 (stereo partly drawn) [Example 376, 4-(2-((7-(8-ethyl-7-fluoro-3-hydroxynaphthalen-1-yl)-8-fluoro-2-(((2R,7aS)-2-fluorotetrahydro-1H-pyrrolizin-7a(5H)-yl)methoxy)pyrido[4,3-d]pyrimidin-4-yl)amino)ethyl)pyrrolidin-2-one]	6.49 µM	0.016 µM	0.004 µM	≥ 10 µM	0.003 µM			
CCc1c(F)ccc2cc(O)cc(-c3ncc4c(NCC(N)CC(=O)O)nc(OC[C@@]56CCCN5C[C@H](F)C6)nc4c3F)c12 (single isomer, unassigned) [Example 374]	≥ 10 µM	≤ 0.002 µM	0.015 µM	9.38 µM	0.009 µM			
Nc1cc2n(n1)CCCN(c1nc(OC[C@@]34CCCN3C[C@H](F)C4)nc3c(F)c(-c4cc(O)cc5ccc(F)c(Cl)c45)ncc13)C2 [Example 426, 4-(4-(2-amino-7,8-dihydro-4H-pyrazolo[1,5-a][1,4]diazepin-5(6H)-yl)-8-fluoro-2-(((2R,7aS)-2-fluorohexahydro-1H-pyrrolizin-7a-yl)methoxy)pyrido[4,3-d]pyrimidin-7-yl)-5-chloro-6-fluoronaphthalen-2-ol]		≤ 0.002 µM	≤ 0.002 µM	0.652 µM	≤ 0.002 µM	0.264 µM	≥ 10 µM	1.22 µM
O=C1NC(=O)C2CN(c3nc(OC[C@@]45CCCN4C[C@H](F)C5)nc4c(F)c(-c5cc(O)cc6ccc(F)c(Cl)c56)ncc34)CC12 (stereo partly drawn) [Example 423, 5-(7-(8-chloro-7-fluoro-3-hydroxynaphthalen-1-yl)-8-fluoro-2-(((2R,7aS)-2-fluorohexahydro-1H-pyrrolizin-7a-yl)methoxy)pyrido[4,3-d]pyrimidin-4-yl)tetrahydropyrrolo[3,4-c]pyrrole-1,3(2H,3aH)-dione]		≤ 0.002 µM	≤ 0.002 µM	0.556 µM	≤ 0.002 µM	0.11 µM	≥ 10 µM	2.22 µM
CCc1c(F)ccc2cc(O)cc(-c3ncc4c(N5CCOC6(CCS(=O)(=O)CC6)C5)nc(OC[C@@]56CCCN5C[C@H](F)C6)nc4c3F)c12 [Example 502, 4-(7-(8-ethyl-7-fluoro-3-hydroxynaphthalen-1-yl)-8-fluoro-2-(((2R,7aS)-2-fluorohexahydro-1H-pyrrolizin-7a-yl)methoxy)pyrido[4,3-d]pyrimidin-4-yl)-1-oxa-9-thia-4-azaspiro[5.5]undecane 9,9-dioxide]		0.638 µM	0.607 µM	2.1 µM	0.457 µM	1.94 µM	≥ 10 µM	6.46 µM
CN(C)CC1(COc2nc(N3CCC[C@@](C)(O)C3)c3cnc(-c4cc(O)cc(Cl)c4C4CC4)c(F)c3n2)CC1 [Example 517, (R)-1-(7-(3-chloro-2-cyclopropyl-5-hydroxyphenyl)-2-((1-((dimethylamino)methyl)cyclopropyl)methoxy)-8-fluoropyrido[4,3-d]pyrimidin-4-yl)-3-methylpiperidin-3-ol]		≤ 0.002 µM	0.006 µM	0.203 µM	0.003 µM	0.042 µM	≥ 10 µM	0.321 µM
CCc1c(F)ccc2cc(O)cc(-c3ncc4c(N5CCOC6(CCS(=N)(=O)CC6)C5)nc(OC[C@@]56CCCN5C[C@H](F)C6)nc4c3F)c12 (stereo partly drawn) [Example 503, 4-(7-(8-ethyl-7-fluoro-3-hydroxynaphthalen-1-yl)-8-fluoro-2-(((2R,7aS)-2-fluorohexahydro-1H-pyrrolizin-7a-yl)methoxy)pyrido[4,3-d]pyrimidin-4-yl)-9-imino-1-oxa-9-thia-4-azaspiro[5.5]undecane 9-oxide]		0.305 µM	0.124 µM	≥ 10 µM	0.082 µM	≥ 10 µM	≥ 10 µM	≥ 10 µM
O=C1NCC12CCCN(c1nc(OC[C@@]34CCCN3C[C@H](F)C4)nc3c(F)c(-c4cc(O)cc5ccc(F)c(Br)c45)ncc13)C2 (stereo partly drawn) [Example 406, 6-(7-(8-bromo-7-fluoro-3-hydroxynaphthalen-1-yl)-8-fluoro-2-(((2R,7aS)-2-fluorohexahydro-1H-pyrrolizin-7a-yl)methoxy)pyrido[4,3-d]pyrimidin-4-yl)-2,6-diazaspiro[3.5]nonan-1-one]		0.004 µM	0.011 µM	0.88 µM	0.005 µM	0.306 µM	≥ 10 µM	0.748 µM
CCc1c(F)ccc2cc(O)cc(-c3ncc4c(N5CCCC6(C5)C[S+]([O-])C6)nc(OC[C@@]56CCCN5C[C@H](F)C6)nc4c3F)c12 (stereo partly drawn) [Example 484, 6-(7-(8-ethyl-7-fluoro-3-hydroxynaphthalen-1-yl)-8-fluoro-2-(((2R,7aS)-2-fluorohexahydro-1H-pyrrolizin-7a-yl)methoxy)pyrido[4,3-d]pyrimidin-4-yl)-2-thia-6-azaspiro[3.5]nonane 2-oxide]		0.023 µM	0.048 µM	4.86 µM	0.028 µM	1.06 µM	≥ 10 µM	3.03 µM
CCc1c(F)ccc2cc(O)cc(-c3ncc4c(N5C[C@@H]6C(=O)NNC(=O)[C@@H]6C5)nc(OC[C@@]56CCCN5C[C@H](F)C6)nc4c3F)c12 [Example 363, (4aR,7aS)-6-(7-(8-ethyl-7-fluoro-3-hydroxynaphthalen-1-yl)-8-fluoro-2-(((2R,7aS)-2-fluorotetrahydro-1H-pyrrolizin-7a(5H)-yl)methoxy)pyrido[4,3-d]pyrimidin-4-yl)hexahydro-1H-pyrrolo[3,4-d]pyridazine-1,4(4aH)-dione]		0.201 µM	0.01 µM	≥ 10 µM	0.057 µM	≥ 10 µM	≥ 10 µM	≥ 10 µM
CCc1c(F)ccc2cc(O)cc(-c3ncc4c(N5CCCC6(CC(=O)N6)C5)nc(OCC5(CN(C)C)CC5)nc4c3F)c12 (stereo not drawn) [Example 513, 6-(2-((1-((dimethylamino)methyl)cyclopropyl)methoxy)-7-(8-ethyl-7-fluoro-3-hydroxynaphthalen-1-yl)-8-fluoropyrido[4,3-d]pyrimidin-4-yl)-1,6-diazaspiro[3.5]nonan-2-one]		≤ 0.002 µM	0.003 µM	1.31 µM	≤ 0.002 µM	0.221 µM	≥ 10 µM	0.869 µM
